Measurements as given in patent US8987257B2 (Novartis AG, priority 2011, dated 2015).

Assays:
[1] = system: H4 mCherry-GFP-LC3 cells; assay: Test 4: Autophagy Assay (mCherry-GFP-LC3 reporter, high-content imaging); assay type: cell-based; settings: Homo sapiens, Table 4 (unit inferred), mCherry-positive LC3 puncta/cell, 16-18 h
[2] = target: PI3Kα (Homo sapiens (Human), UniProt P42336); assay: Test 1: PI3 Kinase Assay (PI3K KinaseGlo assay); assay type: biochemical; settings: 1 μM ATP
Protocol: L-a-phosphatidylinositol (PI), provided as 10 mg/ml solution in methanol, was transferred into a glass tube and dried under nitrogen beam. It was then resuspended in 3% OctylGlucoside (OG) by vortexing and stored at 4° C. The KinaseGlo Luminescent Kinase Assay (Promega, Madison/WI, USA) is a homogeneous HTS method of measuring kinase activity by quantifying the amount of ATP remaining in solution following a kinase reaction.
Kinase reactions were started by addition of 5 μl of ATP-mix containing in a final volume 10 μL 10 mM TRIS-HCl pH 7.5, 3 mM MgCl2, 50 mM NaCl, 0.05% CHAPS, 1 mM DTT and 1 μM ATP, and occurred at room temperature.
The PI3Kα construct is a fusion of p85α iSH2 domain and the respective p110 isoform. The p85α fragment and p110 isoform gene were generated by PCR from first strand cDNA generated by RT-PCR from commercial RNA from placenta, testis and brain as described below.
The p85 fragment was derived from plasmid p1661-2 digested with Nhe/Spe. The p110α fragment derived from its clone was verified by sequencing and used in LR410 as a SpeI/HindIII fragment. For the generation of the baculovirus expression vector LR410 the gateway LR reaction to transfer the insert into the Gateway adapted pBlueBac4.5 (Invitrogen) vector was used. The cloning vector pBlueBac4.5 (Invitrogen) was digested with Nhe/HindIII. […] The two reverse primers overlap and incorporate a 12×Gly linker and the N-terminal sequence of the p110α gene to the SpeI site. The PCR fragment was cloned into pCR2.1 TOPO (Invitrogen). Of the resulting clones, p1661-2 was determined to be correct by sequencing. This plasmid was digested with Nhe and SpeI and the resulting fragment was gel-isolated and purified for sub-cloning.
PI3Kα was purified in two chromatographic steps: immobilized metal affinity chromatography (IMAC) on a Ni sepharose resin (GE Healthcare) and gel filtration utilizing a Superdex 200 26/60 column (GE Healthcare). All buffers were chilled to 4° C. and lysis was performed chilled on ice. Column fractionation was performed at room temperature.

[3] = system: constitutively active mTOR; assay: Test 3: TSC Assay (high content imaging of phospho-S6 (240/244) in TSC1−/− MEFs); assay type: cell-based; settings: Mus musculus, pS6 240/244 staining, 2 hrs compound treatment
Protocol: This assay generates IC50 values for compounds that inhibit mTOR.
Quantification of pS6 Staining Using High-Content Imaging and Analysis
Day 0: Cell plating. Subconfluent TSC1−/− MEFs are harvested by trypsinization, resuspended in growth medium, and counted. […] The plates are briefly spun down and placed at 37° C. and 5% CO2. • 2. Day 1: Cell plates are washed into a PBS starve solution (contains glucose, sodium bicarbonate, HEPES and phenol red) using a 384-well plate washer. The wash protocol aspirates the volume down to 30 μL/well before dispensing 60 μL/well of the PBS starve solution. Aspiration and dispensing steps are repeated 8 times and a final volume of 30 μL/well is left. The cell plates are placed at 37° C. and 5% CO2 for 2 hrs. • Compound treatment. Compound dose responses are prepared in DMSO. The dose responses are then diluted 1:50 in medium. 10 ul of the diluted compound is added to 30 ul of cells, yielding a final 1:200 dilution of the original compound and final of 0.5% DMSO. Compound-treatments are performed in triplicates. The plates are placed at 37° C. and 5% CO2 for 2 hrs. Cells are then fixed by adding 10 μL/well 5× concentrated Mirsky's fixative. […] The cell plates are briefly spun down and incubated for 1 h at room temperature. Cells are then washed using a 384-well plate washer using a protocol which aspirates the volume down to 30 μL/well before dispensing 60 μL/well 1×TBS. Aspiration and dispensing steps are repeated 8 times and then an additional aspiration step leaves a final volume of 10 μL/well. Block buffer (1×TBS+0.1% Triton X-100+0.1% BSA) is then added at 25 μL/well and the plates are incubated at room temperature for 30 min. The cell plates are then aspirated down to 10 μL/well. […] Plates are incubated overnight at 4° C. • 3. […] The bottom of the plate is cleaned with 70% ethanol and then imaged using the InCell 1000 automated epifluorescence microscope. […] Cy5 images are acquired using an excitation of 620 nm (Chroma 620—60× filter), an emission of 700 nm (Chroma HQ700—75M filter) and an exposure time of 200 ms. A double band pass mirror is used for all images. • 4. Image analysis: The InCell Analysis software is used to analyze the images using the Dual Object algorithm. […] The Cy5 fluorescence intensity inside the collar is measured (cell intensity) and results are reported on an “Average per cell” basis. • 5. IC50 calculation: IC50s are calculated by plotting the cell intensity values on the y-axis with dose response values on the x-axis. IC50 values represent compound potency against mTOR.

[4] = target: FRAP1/mTOR (Homo sapiens (Human), UniProt P42345); assay: Test 2: mTOR Biochemical Assay (FRAP1/mTOR TR-FRET tracer assay); assay type: binding; settings: mTOR Kinase Tracer 314
Chain of FRAP1/mTOR (P42345 1360-2549): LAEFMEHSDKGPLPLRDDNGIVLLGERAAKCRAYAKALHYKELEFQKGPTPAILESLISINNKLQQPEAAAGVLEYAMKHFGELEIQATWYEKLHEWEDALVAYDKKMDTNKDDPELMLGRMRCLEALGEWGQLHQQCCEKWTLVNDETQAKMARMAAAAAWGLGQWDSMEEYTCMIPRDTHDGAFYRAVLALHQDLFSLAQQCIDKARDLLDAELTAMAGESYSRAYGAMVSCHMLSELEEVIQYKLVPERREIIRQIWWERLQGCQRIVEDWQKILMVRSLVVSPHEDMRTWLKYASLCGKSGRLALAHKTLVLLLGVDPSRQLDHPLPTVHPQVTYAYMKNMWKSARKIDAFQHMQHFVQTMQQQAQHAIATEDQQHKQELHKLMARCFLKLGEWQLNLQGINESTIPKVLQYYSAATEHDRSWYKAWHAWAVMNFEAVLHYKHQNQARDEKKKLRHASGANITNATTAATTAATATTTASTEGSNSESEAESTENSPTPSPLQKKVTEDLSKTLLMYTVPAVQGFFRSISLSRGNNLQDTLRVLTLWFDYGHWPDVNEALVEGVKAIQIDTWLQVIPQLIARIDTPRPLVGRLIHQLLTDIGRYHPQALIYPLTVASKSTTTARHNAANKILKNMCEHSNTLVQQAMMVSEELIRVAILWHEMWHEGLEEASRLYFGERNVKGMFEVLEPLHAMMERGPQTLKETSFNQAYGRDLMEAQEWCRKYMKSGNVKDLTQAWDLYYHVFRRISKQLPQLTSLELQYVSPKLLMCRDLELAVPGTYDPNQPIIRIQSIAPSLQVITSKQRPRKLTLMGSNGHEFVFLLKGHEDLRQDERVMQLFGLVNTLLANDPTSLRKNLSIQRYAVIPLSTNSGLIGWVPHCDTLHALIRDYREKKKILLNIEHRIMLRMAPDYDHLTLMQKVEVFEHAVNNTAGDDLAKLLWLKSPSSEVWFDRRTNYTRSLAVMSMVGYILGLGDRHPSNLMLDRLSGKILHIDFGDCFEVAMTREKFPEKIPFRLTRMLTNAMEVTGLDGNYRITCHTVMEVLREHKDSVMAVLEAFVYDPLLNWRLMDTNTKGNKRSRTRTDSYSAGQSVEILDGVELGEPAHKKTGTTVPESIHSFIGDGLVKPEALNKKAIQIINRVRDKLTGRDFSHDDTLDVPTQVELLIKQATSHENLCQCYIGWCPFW
Protocol: IC50s for mTOR interacting compounds were assessed using the FRAP1/mTOR TR-FRET tracer assay (Invitrogen by Life Technologies). […] Compounds were serially diluted in DMSO (12-point, 4× dilution factor) and 1 μL of diluted compound was then added to each well and mixed by pipetting using a Biomek FX (Beckman Coulter).

Chain of PI3Kα (P42336 other isoform, or with tags, fused parts or gaps): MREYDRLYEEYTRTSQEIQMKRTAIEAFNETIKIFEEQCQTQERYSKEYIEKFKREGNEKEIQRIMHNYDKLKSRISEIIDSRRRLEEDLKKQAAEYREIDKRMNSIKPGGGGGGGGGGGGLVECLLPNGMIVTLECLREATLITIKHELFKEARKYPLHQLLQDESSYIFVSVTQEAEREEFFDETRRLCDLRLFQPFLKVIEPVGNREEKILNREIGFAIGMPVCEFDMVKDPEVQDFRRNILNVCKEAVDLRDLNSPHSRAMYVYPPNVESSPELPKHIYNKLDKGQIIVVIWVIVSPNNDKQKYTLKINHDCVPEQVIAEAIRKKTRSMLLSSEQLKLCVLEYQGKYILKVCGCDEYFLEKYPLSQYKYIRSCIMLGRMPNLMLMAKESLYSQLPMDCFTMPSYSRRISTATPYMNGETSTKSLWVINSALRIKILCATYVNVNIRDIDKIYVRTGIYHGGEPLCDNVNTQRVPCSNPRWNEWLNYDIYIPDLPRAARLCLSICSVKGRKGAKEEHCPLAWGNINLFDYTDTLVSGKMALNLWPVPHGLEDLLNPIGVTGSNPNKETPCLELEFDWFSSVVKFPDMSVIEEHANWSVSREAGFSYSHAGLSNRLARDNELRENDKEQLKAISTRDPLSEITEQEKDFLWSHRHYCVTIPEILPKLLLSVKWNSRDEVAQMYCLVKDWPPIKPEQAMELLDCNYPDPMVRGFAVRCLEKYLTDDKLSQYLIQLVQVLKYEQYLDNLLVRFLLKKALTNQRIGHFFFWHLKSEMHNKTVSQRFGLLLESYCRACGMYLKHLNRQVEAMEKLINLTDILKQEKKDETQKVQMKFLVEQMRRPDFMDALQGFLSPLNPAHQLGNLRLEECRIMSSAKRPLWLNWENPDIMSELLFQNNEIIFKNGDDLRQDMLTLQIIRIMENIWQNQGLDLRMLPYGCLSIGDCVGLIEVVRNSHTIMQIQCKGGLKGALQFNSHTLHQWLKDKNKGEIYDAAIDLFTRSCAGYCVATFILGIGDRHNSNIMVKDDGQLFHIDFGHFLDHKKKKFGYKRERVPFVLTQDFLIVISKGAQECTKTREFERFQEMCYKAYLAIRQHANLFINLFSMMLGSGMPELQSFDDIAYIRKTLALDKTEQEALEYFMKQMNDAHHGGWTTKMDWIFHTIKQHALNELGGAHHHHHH

Row | Structure (SMILES) | EC50 [1] [nM] | IC50 [2] [nM] | IC50 [3] [nM] | IC50 [4] [nM]
1 | c1cc(-c2nc3c(N4C[C@@H]5C[C@H]4CO5)nc(N4CCOCC4)nc3[nH]2)c2cc[nH]c2c1 [Example 50, 8-(1H-Indol-4-yl)-2-morpholin-4-yl-6-(1S,4S)-2-oxa-5-aza-bicyclo[2.2.1]hept-5-yl-9H-purine] | 8670 | 4220 | 920 | 1200
2 | C[C@H]1COCCN1c1nc(N2CC3CCC(C2)O3)nc2[nH]c(-c3cccc4[nH]ccc34)nc12 [Example 52, 8-(1H-Indol-4-yl)-6-((S)-3-methyl-morpholin-4-yl)-2-(8-oxa-3-aza-bicyclo[3.2.1]oct-3-yl)-9H-purine] | 386 | 420 | 88 | 50
3 | c1cc2ccc(-c3nc4c(N5C6CCC5COC6)nc(N5CCOCC5)nc4[nH]3)cc2[nH]1 [Example 53, 8-(1H-Indol-6-yl)-2-morpholin-4-yl-6-(3-oxa-8-aza-bicyclo[3.2.1]oct-8-yl)-9H-purine] | 782 | > 9100 | 528 | 190
4 | c1cc(-c2nc3c(N4C5CCC4COC5)nc(N4CCOCC4)nc3[nH]2)c2cc[nH]c2c1 [Example 54, 8-(1H-Indol-4-yl)-2-morpholin-4-yl-6-(3-oxa-8-aza-bicyclo[3.2.1]oct-8-yl)-9H-purine] | 1250 | 5790 | 309 | 150
5 | C[C@@H]1COCCN1c1nc(N2CCOC[C@@H]2C)nc2[nH]c(-c3cccc4[nH]ccc34)cc12 [Example 55, 6-(1H-Indol-4-yl)-4-((R)-3-methyl-morpholin-4-yl)-2-((S)-3-methyl-morpholin-4-yl)-7H-pyrrolo[2,3-d]pyrimidine] | 1000 | 1440 | 71 | 2670
6 | c1cc(-c2cc3c(N4CCOCC4)nc(N4CCOCC4)nc3[nH]2)c2cc[nH]c2c1 [Example 56, 6-(1H-Indol-4-yl)-2,4-di-morpholin-4-yl-7H-pyrrolo[2,3-d]pyrimidine] | 3650 | 2010 | 174 | 2390
